According to paper PMC8113149 (Bioorganic & medicinal chemistry letters, 2021):
“Also recorded” adds a separate entry of the source. Where two headings read alike, the source gives them in different places. Values belong to the molecule of their own block, whether it stands above or below them.

Legend:
[1] = test system: tubulin; experiment: Inhibition of [3H]colchicine binding to tubulin
[2] = test system: cellular microtubules; details: read-out: Cellular microtubule depolymerization EC50; lead compounds; cited from earlier work
[3] = test system: tubulin; details: lead compounds, cited from earlier work
[4] = test system: tubulin; experiment: Inhibition of tubulin assembly; format: biochemical
[5] = test system: cellular microtubules; experiment: Cellular microtubule depolymerization; format: cell-based; details: 5-methyl vs 5-desmethyl compound
[6] = test system: MDA-MB-435; experiment: Antiproliferative effects in MDA-MB-435; format: cell-based, human; details: 5-methyl vs 5-desmethyl compound
[7] = Animal weight and MTD in xenograft study
[8] = test system: MCF-7 TUBB3 (βIII-tubulin overexpressing) tumors; experiment: MCF-7 TUBB3 orthotopic xenograft; format: in vivo, mouse; details: athymic female mice; 9 at 30 mg/kg two times weekly, paclitaxel 10 mg/kg/week
[9] = test system: NCI 60 cell line panel; experiment: NCI-60 panel, overall; format: cell-based; details: Homo sapiens, read-out: GI50 against most/many tumor cell lines

Inhibition of [3H]colchicine binding, in words [1]: equipotent to 9
SMILES: CSc1ccc(N(C)c2nc(Cl)nc3cnn(C)c23)cc1 [Compound 15]

SMILES: COc1ccc(Nc2nc(C)nc3cc[nH]c23)cc1 [Compound 1]
EC50 [2]: > 10 µM
Inhibition of colchicine binding, % inhibition ± SD ([3]; 5 μM inhibitor): 0%

SMILES: COc1ccc(/C=C\c2cc(OC)c(OC)c(OC)c2)cc1O [CA-4, combretastatin A-4]
Inhibition of colchicine binding, % inhibition ± SD ([1]; 0.5 μM inhibitor): 84 ± 3%
EC50 [2]: 0.0098 µM
Inhibition of colchicine binding, % inhibition ± SD ([3]; 0.5 μM inhibitor): 84 ± 3%

IC50 ([4]; read-out: Inhibition of tubulin assembly IC50 ± SD): > 20 µM
Inhibition of [3H]colchicine binding, in words [1]: completely inactive
SMILES: COc1ccc(Nc2nc(Cl)nc3cnn(C)c23)cc1 [Compound 10]
Inhibition of tubulin assembly, in words [4]: did not inhibit tubulin assembly; also recorded: no effect

SMILES: COc1ccc(N(C)c2nc(C)nc3ccn(C)c23)cc1 [Compound 3]
Fold more potent in cellular microtubule depolymerization than 5-desmethyl 2 [5]: 160 fold
EC50 [2]: 0.0074 µM
Fold more potent in antiproliferative effects than 5-desmethyl 2 [6]: 22 fold

SMILES: CC(=O)O[C@H]1C(=O)[C@@]2(C)[C@H]([C@H](OC(=O)c3ccccc3)[C@]3(O)C[C@H](OC(=O)[C@H](O)[C@@H](NC(=O)c4ccccc4)c4ccccc4)C(C)=C1C3(C)C)[C@]1(OC(C)=O)CO[C@@H]1C[C@@H]2O [Paclitaxel, paclitaxel]
Maximally tolerated dose (MTD) ([7]; mice): 10 mg/kg/week

SMILES: COc1ccc(N(C)c2nc(C)nc3c(Cc4ccccc4)cn(C)c23)cc1 [Compound 5]
Fold more potent in inhibiting tubulin assembly than 5-desmethyl compound ([4]; 5 vs 4, 7 vs 6): 43 fold

SMILES: COc1ccc(N(C)c2nc(C)nc3cc[nH]c23)cc1 [Compound 2]
EC50 [2]: 1.2 µM

SMILES: COc1ccc(N(C)c2nc(Cl)nc3cnn(C)c23)cc1 [Compound 9]
Primary tumor growth / tumor volume [8]: decreased primary tumor growth
Animal weight change ([7]; percent weight change at day 41 over starting weight): no significant weight loss
GI50 [9]: ≤ 0.01 µM
